Results published in patent publication US7569547B2, “Inhibiting furin with polybasic peptides” (Board of Supervisors of Louisiana State University and …, priority 2001, dated 2009).

What was measured:
PC1 = biological target: T1, PC1 (Mus musculus, UniProt P63239); test: biochemical; assay type: biochemical
T1 construct: made in house
T1 sequence (P63239 111-753): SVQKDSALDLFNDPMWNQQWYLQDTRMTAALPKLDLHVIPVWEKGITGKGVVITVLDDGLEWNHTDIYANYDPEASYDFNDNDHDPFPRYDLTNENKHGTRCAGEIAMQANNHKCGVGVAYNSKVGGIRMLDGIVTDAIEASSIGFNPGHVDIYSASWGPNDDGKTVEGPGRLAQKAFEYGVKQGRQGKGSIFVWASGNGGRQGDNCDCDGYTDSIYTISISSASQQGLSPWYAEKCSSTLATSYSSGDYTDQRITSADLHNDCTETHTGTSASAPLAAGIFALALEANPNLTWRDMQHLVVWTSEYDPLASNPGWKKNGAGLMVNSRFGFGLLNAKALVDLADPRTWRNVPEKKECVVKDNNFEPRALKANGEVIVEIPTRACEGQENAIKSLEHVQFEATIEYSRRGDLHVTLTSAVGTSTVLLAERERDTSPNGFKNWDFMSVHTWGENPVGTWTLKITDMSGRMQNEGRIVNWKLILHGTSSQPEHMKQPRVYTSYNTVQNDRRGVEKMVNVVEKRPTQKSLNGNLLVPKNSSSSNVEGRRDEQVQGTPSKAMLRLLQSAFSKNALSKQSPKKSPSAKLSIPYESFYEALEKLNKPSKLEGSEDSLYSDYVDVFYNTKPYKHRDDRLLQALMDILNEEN
Method: (§1) The proprotein convertases PC1 and PC2 were prepared by ion exchange chromatography as described in G. Frenette et al., Biochim. Biophys. Acta., vol. 1334, pp. 109-115 (1997).
(§2) Enzyme Assays and Hexapeptide Library Screening. Enzyme assays for PC1 and PC2 were performed at pH 5.0 using pERTKR-MCA (Peptides International Inc., Louisville, Ky.) as described in E. Apletalina et al., J. Biol. Chem., vol. 273, pp. 26589-26595 (1998). The assay for furin was performed using the same substrate at pH 7.0 in 100 mM HEPES, 5 mM CaCl2, 0.1% Brij 35. All assays were performed at 37° C. in a 96 well fluorometer (Labsystems) at an excitation wavelength of 380 nm with emission monitored at a wavelength of 460 nm. The total volume was 50 μL. Unless otherwise stated, the final substrate concentration for all assays was 200 μM. When used in a particular experiment, the inhibitory peptides were pre-incubated with enzyme for 30 min at room temperature prior to addition of substrate. All assays were performed in duplicate or triplicate.

furin = biological target: T2, furin (Mus musculus, UniProt P23188); test: Cleavage of polyarginines by furin, HPLC analysis; assay type: biochemical
T2 construct: truncated N-terminally to the transmembrane domain at His^711 using PCR; myc (C, cleaved yes); hexa-His (C, cleaved yes); made in house; host or cells: DG44 CHO cells, conditioned medium
T2 sequence (P23188 108-714 limits assumed): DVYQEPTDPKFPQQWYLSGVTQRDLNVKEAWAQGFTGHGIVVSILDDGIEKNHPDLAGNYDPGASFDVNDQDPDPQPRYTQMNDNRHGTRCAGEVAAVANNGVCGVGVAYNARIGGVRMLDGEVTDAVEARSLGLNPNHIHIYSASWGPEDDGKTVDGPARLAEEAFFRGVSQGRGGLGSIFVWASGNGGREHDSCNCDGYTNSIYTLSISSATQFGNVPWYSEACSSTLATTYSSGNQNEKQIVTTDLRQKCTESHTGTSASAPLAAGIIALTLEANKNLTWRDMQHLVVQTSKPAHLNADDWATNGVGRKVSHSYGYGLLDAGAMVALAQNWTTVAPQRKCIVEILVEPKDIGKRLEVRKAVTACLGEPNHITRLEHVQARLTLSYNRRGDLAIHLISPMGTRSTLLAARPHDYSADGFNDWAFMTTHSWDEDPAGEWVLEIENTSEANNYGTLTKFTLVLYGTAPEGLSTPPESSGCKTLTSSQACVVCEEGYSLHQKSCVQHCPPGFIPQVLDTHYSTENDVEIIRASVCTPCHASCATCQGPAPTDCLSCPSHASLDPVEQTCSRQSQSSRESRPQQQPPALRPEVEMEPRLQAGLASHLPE
Method: Absorbance was monitored at 214 nm. Cleavage products were identified by comparison to polyarginine standards.
Cleavage of Nona-L-arginine (SEQ ID NO 13) and Hexa-L-arginine (SEQ ID NO 14) by Furin. FIGS. 10(a) through (h) depict the cleavage of nona-L-arginine (SEQ ID NO 13) and hexa-L-arginine (SEQ ID NO 14) by furin. Furin (FIGS. (10(b), (c), (d), (e), and (g)) or buffer (FIGS. 10(f) and (h) was incubated with nona-L-arginine (SEQ ID NO 13) (FIGS. 10(b), (c), (d), (e), and (f) or hexa-L-arginine (SEQ ID NO 14) (FIGS. (10(g) and (h) at 37° C. for 0 min (FIG. (10(b)), 40 min (FIG. 10(c)), 6 h (FIG. 10(d)), or 24 h (FIGS. 10(e), (f), (g), and (h) prior to separation by HPLC as described in the experimental procedures. In FIG. 10(a) the simple separation of a standard mixture polyarginines (without enzyme) is shown; the number of residues per poly-L-arginine is indicated by the positions of the arrows at the tops of FIGS. 10(a) and (e).

[1] = test system: Pseudomonas exotoxin A (PEA) in HEK293 cells; test: Protection of HEK293 cells from death caused by Pseudomonas exotoxin A (WST); assay type: cell-based, human
Description: Pseudomonas exotoxin A (PEA) must be cleaved by furin at the cell surface to gain entry into a cell, which typically causes cell death. […] We inferred that the D6R blocked the cleavage of PEA by furin, thus preventing its activation.

PC2 = biological target: T3, PC2 (Mus musculus, UniProt P21661); test: PC2 enzyme assay, hydrolysis of pERTKR-MCA at pH 5.0; assay type: biochemical; parameters: made in house; settings: data not shown
T3 sequence (P21661 109-637): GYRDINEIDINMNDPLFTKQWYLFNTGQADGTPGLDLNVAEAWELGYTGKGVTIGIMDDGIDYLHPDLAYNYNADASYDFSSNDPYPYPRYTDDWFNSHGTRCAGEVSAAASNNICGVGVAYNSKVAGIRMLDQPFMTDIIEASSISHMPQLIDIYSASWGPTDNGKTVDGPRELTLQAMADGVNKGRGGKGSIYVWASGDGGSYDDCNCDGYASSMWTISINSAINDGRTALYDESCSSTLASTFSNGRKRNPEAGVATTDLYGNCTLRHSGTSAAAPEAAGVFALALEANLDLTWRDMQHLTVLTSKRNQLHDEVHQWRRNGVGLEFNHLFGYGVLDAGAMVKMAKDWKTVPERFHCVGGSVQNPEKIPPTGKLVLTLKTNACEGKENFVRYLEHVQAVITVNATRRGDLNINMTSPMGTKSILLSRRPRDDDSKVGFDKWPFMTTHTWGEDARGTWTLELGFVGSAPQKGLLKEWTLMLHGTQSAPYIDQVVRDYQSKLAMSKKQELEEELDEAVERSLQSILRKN
Method: as §1, §2

SMILES: N=C(N)NCCC[C@@H](NC(=O)[C@H](N)CCCN=C(N)N)C(=O)N[C@H](CCCNC(=N)N)C(=O)N[C@H](CCCNC(=N)N)C(=O)N[C@H](CCCNC(=N)N)C(=O)N[C@H](CCCN=C(N)N)C(=O)O [Hexa-D-arginine]
- Ki (PC1): 13 ± 0.25 µM
- cleavage by furin (furin; after 24 hours incubation): essentially no cleavage
- amount of WST (absorbance) ([1]; HEK293, 1 μM D6R + 10 ng/mL PEA, 51 hours): 0.52 ± 0.04
- amount of WST (absorbance) ([1]; HEK293, 1 μM D6R + 10 ng/mL PEA, 76 hours): 0.85 ± 0.02
- amount of WST (absorbance) ([1]; HEK293, 1 μM D6R + 10 ng/mL PEA, 86 hours): 0.83 ± 0.02
- amount of WST (absorbance) ([1]; HEK293, 1 μM D6R + 10 ng/mL PEA, 96 hours): 0.56 ± 0.04
- amount of WST (absorbance) ([1]; HEK293, 10 μM D6R + 10 ng/mL PEA, 51 hours): 0.54 ± 0.07
- amount of WST (absorbance) ([1]; HEK293, 10 μM D6R + 10 ng/mL PEA, 76 hours): 0.73 ± 0.05
- amount of WST (absorbance) ([1]; HEK293, 10 μM D6R + 10 ng/mL PEA, 86 hours): 0.71 ± 0.02
- amount of WST (absorbance) ([1]; HEK293, 10 μM D6R + 10 ng/mL PEA, 96 hours): 0.67 ± 0.01
- amount of WST (absorbance) ([1]; HEK293, 100 μM D6R + 10 ng/mL PEA, 51 hours): 0.51 ± 0.04
- amount of WST (absorbance) ([1]; HEK293, 100 μM D6R + 10 ng/mL PEA, 76 hours): 0.78 ± 0.03
- amount of WST (absorbance) ([1]; HEK293, 100 μM D6R + 10 ng/mL PEA, 86 hours): 0.61 ± 0.06
- amount of WST (absorbance) ([1]; HEK293, 100 μM D6R + 10 ng/mL PEA, 96 hours): 0.55 ± 0.02
- effect on cell death caused by PEA ([1]; HEK293 cells, 10 ng/mL PEA, 1 μM final concentration): reduced the cell death caused by PEA
- protection of cells from killing by exotoxin ([1]; preliminary data, summary statement): able to protect cells from killing
- effect on PC2 activity (PC2): no stimulatory or inhibitory effect

SMILES: N=C(N)NCCC[C@H](NC(=O)[C@H](CCCNC(=N)N)NC(=O)[C@H](CCCNC(=N)N)NC(=O)[C@H](CCCNC(=N)N)NC(=O)[C@H](CCCNC(=N)N)NC(=O)[C@@H](N)CCCNC(=N)N)C(=O)O [Hexa-L-arginine]
- Ki (PC1): 3.9 ± 0.62 µM
- cleavage by furin (furin; after 24 hours incubation): partial digestion
- cleavage by furin (furin; after six hours incubation): essentially no cleavage
- effect on PC2 activity (PC2): Stimulates PC2 Activity

SMILES: N=C(N)NCCC[C@H](NC(=O)[C@H](CCCNC(=N)N)NC(=O)[C@H](CCCNC(=N)N)NC(=O)[C@H](CCCNC(=N)N)NC(=O)[C@H](CCCNC(=N)N)NC(=O)[C@H](CCCNC(=N)N)NC(=O)[C@H](CCCNC(=N)N)NC(=O)[C@H](CCCNC(=N)N)NC(=O)[C@@H](N)CCCNC(=N)N)C(=O)O [Nona-L-arginine]
- Ki (PC1): 12 ± 2.5 µM
- time at which cleavage by furin was first observed (furin; 200 μM peptide, 1.7 μM furin, 37° C.): ~40 min
- original peptide remaining (furin; after four hours with furin, 37° C.): essentially none
